Reference: patent US20130330754A1, “SOL-GEL DERIVED SENSOR FOR RAPID DETERMINATION OF HEAVY METALS” (priority 2012, published 2013)

How the values were obtained:
[1] = molecular target: T1, β-galactosidase (B-GAL) (Escherichia coli, UniProt P00722)
Protocol: The sensor was incubated with a 5 μL sample for 10 min (a separate paper sensor was made for each concentration) and the B-GAL inhibition tested as outlined above.

[2] = molecular target: T1, β-galactosidase (B-GAL); experiment: B-GAL inhibition by heavy metals on bioactive paper sensor (CPRG colour intensity); type: biochemical, E. coli; details: for IC50 values (concentration to obtain 50% inhibition of B-GAL) / limits of detection (LODs): paper sensor, 10 min incubation with metal; for limits of detection (LODs): B-GAL/CPRG assay; for inhibition of B-GAL: single metal
Source text: The sensors were constructed based on an enzyme, B-GAL vs. substrate, CPRG system with three design strategies: a one-dimensional strategy and two flower shape strategies. In the one-dimensional strategy, a section of Whatman #1 paper was cut into small pieces (0.5×8 cm) on which B-GAL and CPRG were entrapped using sol-gel derived sol gel materials into two different zones (e.g., enzyme or sensing and substrate zones). To prevent leaching the color, a hydrophobic barrier was also introduced on the top (FIG. 1b) of the sensing zone(s) using either wax (by wax printer, Xerox Phaser 8560N) or methyltrimethoxysilane (MTMS) (via piezoelectric inkjet printing).
The sensing zones for all cases were incubated with a drop of contaminated sample for 10 min. The bottom of the paper sensor (FIG. 1b, c) was placed into water while a few drops of water were put at the middle of the sensor (FIG. 1d) for lateral flow chromatography. The color intensity was monitored after 5 min air drying at room temperature. The inkjet printing was done as described elsewhere.^31, 32 After printing, the sensor was allowed to dry for at least 1 h in air at room temperature.
The inhibitory effects of these metals on the solid-phase biosensor were evaluated by measuring the decrease in the color intensity produced by the enzyme-substrate reaction. The sensing region of the paper sensor was first incubated with various concentrations of heavy metals (5 μL) for 10 min after which the paper sensor was allowed for lateral flow chronographic system. The images were taken after 5-10 min air drying at room temperature.
The color intensity of the sensing areas was monitored either by the naked eye, by obtaining a digital image (Canon G11 12 MegaPixel camera operated in automatic mode with no flash and with the macroimaging setting on) or by using an office scanner, with ImageJ™ software being used to analyze the Jpeg images in the latter two cases. The numerical single color coordinates values were obtained using the ImageJ™ color split channel system. All data points represent the average of four replicate experiments and the error bars represent the standard deviations (s.d.) of those points.

[3] = molecular target: T1, β-galactosidase (B-GAL); details: EDTA 10 mM; Hg(II), Ag(I) ~2.7 ppm each, other metals ~8 ppm each

T1 sequence (P00722 2-1024): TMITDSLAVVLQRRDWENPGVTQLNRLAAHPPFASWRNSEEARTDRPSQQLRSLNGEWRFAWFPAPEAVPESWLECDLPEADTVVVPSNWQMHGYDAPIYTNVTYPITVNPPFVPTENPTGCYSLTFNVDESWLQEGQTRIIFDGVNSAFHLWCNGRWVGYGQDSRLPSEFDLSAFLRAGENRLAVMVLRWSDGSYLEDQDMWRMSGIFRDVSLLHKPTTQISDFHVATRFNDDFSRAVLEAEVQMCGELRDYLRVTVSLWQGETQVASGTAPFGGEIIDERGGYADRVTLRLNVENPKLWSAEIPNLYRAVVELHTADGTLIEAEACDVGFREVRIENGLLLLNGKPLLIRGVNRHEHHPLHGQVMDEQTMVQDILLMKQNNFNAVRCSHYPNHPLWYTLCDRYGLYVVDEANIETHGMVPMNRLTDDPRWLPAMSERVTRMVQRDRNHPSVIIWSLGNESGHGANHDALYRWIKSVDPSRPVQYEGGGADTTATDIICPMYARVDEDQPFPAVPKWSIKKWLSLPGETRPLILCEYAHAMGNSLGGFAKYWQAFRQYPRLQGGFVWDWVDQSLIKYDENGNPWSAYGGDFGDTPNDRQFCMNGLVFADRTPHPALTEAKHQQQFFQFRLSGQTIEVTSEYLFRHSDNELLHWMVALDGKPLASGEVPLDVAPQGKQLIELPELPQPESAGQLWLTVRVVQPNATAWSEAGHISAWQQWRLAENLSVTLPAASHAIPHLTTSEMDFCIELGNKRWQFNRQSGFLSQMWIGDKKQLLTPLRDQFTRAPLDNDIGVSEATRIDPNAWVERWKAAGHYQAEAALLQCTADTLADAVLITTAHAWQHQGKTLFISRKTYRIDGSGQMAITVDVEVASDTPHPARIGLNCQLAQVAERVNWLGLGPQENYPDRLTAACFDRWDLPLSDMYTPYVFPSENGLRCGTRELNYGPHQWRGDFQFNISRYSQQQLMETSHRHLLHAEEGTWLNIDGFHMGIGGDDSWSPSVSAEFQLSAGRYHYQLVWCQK

Molecule	effect of nontoxic metal ion on response vs. concentration of Hg^2+ and limit of detection ([1]; NaCl 10 μM, KCl 100 ppm)	IC50 values (concentration to obtain 50% inhibition of B-GAL) [2] [ppm]	limits of detection (LODs) [2] [ppm]	inhibition of B-GAL after inclusion of EDTA [3]	inhibition of B-GAL ([2]; 0.1 μM)	limit of detection ([1]; Hg^2+ mixed with NaCl (10 μM)) [µM]	IC50 ([1]; read-out: IC50 value, Hg^2+ mixed with NaCl (10 μM)) [µM]	inhibition of B-GAL ([2]; 3 μM) [%]
[Cl-].[Na+] [NaCl]	negligible effect							
[Ni+2] [Ni(II)]		1.80	~0.230	completely removed the inhibition				
O=[N+]([O-])[O-].[Ag+] [Ag(I), AgNO3]		0.05	~0.002	retaining the inhibition	about 35%			
[Cl][Hg][Cl] [Hg(II), HgCl2]		0.03		completely removed the inhibition	42%	~0.01	0.12	
O=S(=O)([O-])[O-].[Cu+2] [Cu(II), CuSO4]		0.70	~0.020	completely removed the inhibition				23
[Pb+2] [Pb(II)]		1.40	~0.140	completely removed the inhibition				
Cr(VI)		1.49	~0.150	retaining the inhibition				
[Cl][Cd][Cl] [Cd(II), CdCl2]		1.14	~0.020	completely removed the inhibition				
